System: rats with beta-amyloid induced senile dementia
Assay: Water maze test, beta-amyloid induced senile dementia rats
Type: in vivo, rat
Conditions: succinate; for orientation angle for reaching the platform / speed for reaching the platform / swimming path length for reaching the platform / time for reaching the platform: x ± s
[1] = Day 1, 0.7 mg/kg intragastric, 0.7 mg/kg
[2] = Day 1, 1.4 mg/kg intragastric, 1.4 mg/kg
[3] = Day 1, 2.8 mg/kg intragastric, 2.8 mg/kg
[4] = Day 2, 0.7 mg/kg intragastric, 0.7 mg/kg
[5] = Day 2, 1.4 mg/kg intragastric, 1.4 mg/kg
[6] = Day 2, 2.8 mg/kg intragastric, 2.8 mg/kg
[7] = Day 3, 0.7 mg/kg intragastric, 0.7 mg/kg
[8] = Day 3, 1.4 mg/kg intragastric, 1.4 mg/kg
[9] = Day 3, 2.8 mg/kg intragastric, 2.8 mg/kg
[10] = Day 4, 0.7 mg/kg intragastric, 0.7 mg/kg
[11] = Day 4, 1.4 mg/kg intragastric, 1.4 mg/kg
[12] = Day 4, 2.8 mg/kg intragastric, 2.8 mg/kg
[13] = Day 5, 0.7 mg/kg intragastric, 0.7 mg/kg
[14] = Day 5, 1.4 mg/kg intragastric, 1.4 mg/kg
[15] = Day 5, 2.8 mg/kg intragastric, 2.8 mg/kg
[16] = Day 6, 0.7 mg/kg intragastric, 0.7 mg/kg
[17] = Day 6, 1.4 mg/kg intragastric, 1.4 mg/kg
[18] = Day 6, 2.8 mg/kg intragastric, 2.8 mg/kg

## Nc1c2c(nc3c1CCCC3)CCCC2.O=C(O)CCC(=O)O [Crystal Form K, 9-amino-1,2,3,4,5,6,7,8-octahydroacridine succinate]
[1]
  adopted strategy for reaching the platform (the peripheral type and the random type %): 95.24%
  orientation angle for reaching the platform: 72.32 ± 21.32 °
  speed for reaching the platform: 18.56 ± 4.91 cm/s
  swimming path length for reaching the platform: 1196.20 ± 260.35 cm
  time for reaching the platform: 70.00 ± 14.73 s
[2]
  adopted strategy for reaching the platform (the peripheral type and the random type %): 94.82%
  orientation angle for reaching the platform: 71.28 ± 13.47 °
  speed for reaching the platform: 18.24 ± 6.88 cm/s
  swimming path length for reaching the platform: 1151.50 ± 313.31 cm
  time for reaching the platform: 70.50 ± 14.60 s
[3]
  adopted strategy for reaching the platform (the peripheral type and the random type %): 93.17%
  orientation angle for reaching the platform: 68.37 ± 20.14 °
  speed for reaching the platform: 19.42 ± 5.93 cm/s
  swimming path length for reaching the platform: 1188.50 ± 273.99 cm
  time for reaching the platform: 66.90 ± 11.45 s
[4]
  adopted strategy for reaching the platform (the peripheral type and the random type %): 79.34%
  orientation angle for reaching the platform: 62.15 ± 19.37 °
  speed for reaching the platform: 19.44 ± 9.85 cm/s
  swimming path length for reaching the platform: 796.10 ± 179.65 cm
  time for reaching the platform: 48.50 ± 15.28 s
[5]
  adopted strategy for reaching the platform (the peripheral type and the random type %): 78.13%
  orientation angle for reaching the platform: 63.27 ± 10.38 °
  speed for reaching the platform: 20.42 ± 7.24 cm/s
  swimming path length for reaching the platform: 772.80 ± 229.71 cm
  time for reaching the platform: 51.60 ± 17.26 s
[6]
  adopted strategy for reaching the platform (the peripheral type and the random type %): 80.67%
  orientation angle for reaching the platform: 66.21 ± 18.35 °
  speed for reaching the platform: 20.89 ± 6.68 cm/s
  swimming path length for reaching the platform: 770.70 ± 248.67 cm
  time for reaching the platform: 50.40 ± 17.10 s
[7]
  adopted strategy for reaching the platform (the peripheral type and the random type %): 80.31%
  orientation angle for reaching the platform: 58.23 ± 27.90 °
  speed for reaching the platform: 19.76 ± 10.49 cm/s
  swimming path length for reaching the platform: 760.80 ± 277.08 cm
  time for reaching the platform: 41.80 ± 11.68 s
[8]
  adopted strategy for reaching the platform (the peripheral type and the random type %): 77.37%
  orientation angle for reaching the platform: 54.77 ± 18.42 °
  speed for reaching the platform: 20.07 ± 7.36 cm/s
  swimming path length for reaching the platform: 737.60 ± 223.46 cm
  time for reaching the platform: 53.40 ± 23.24 s
[9]
  adopted strategy for reaching the platform (the peripheral type and the random type %): 75.48%
  orientation angle for reaching the platform: 52.93 ± 17.44 °
  speed for reaching the platform: 20.00 ± 8.73 cm/s
  swimming path length for reaching the platform: 584.50 ± 181.92 cm
  time for reaching the platform: 40.50 ± 20.47 s
[10]
  adopted strategy for reaching the platform (the peripheral type and the random type %): 70.66%
  orientation angle for reaching the platform: 57.32 ± 31.22 °
  speed for reaching the platform: 22.17 ± 13.09 cm/s
  swimming path length for reaching the platform: 685.10 ± 319.17 cm
  time for reaching the platform: 38.10 ± 22.41 s
[11]
  adopted strategy for reaching the platform (the peripheral type and the random type %): 71.34%
  orientation angle for reaching the platform: 51.48 ± 11.38 °
  speed for reaching the platform: 20.53 ± 11.21 cm/s
  swimming path length for reaching the platform: 653.50 ± 321.17 cm
  time for reaching the platform: 36.00 ± 20.42 s
[12]
  adopted strategy for reaching the platform (the peripheral type and the random type %): 68.99%
  orientation angle for reaching the platform: 50.22 ± 18.92 °
  speed for reaching the platform: 21.48 ± 9.09 cm/s
  swimming path length for reaching the platform: 544.70 ± 179.35 cm
  time for reaching the platform: 37.00 ± 17.54 s
[13]
  adopted strategy for reaching the platform (the peripheral type and the random type %): 71.53%
  orientation angle for reaching the platform: 54.22 ± 28.34 °
  speed for reaching the platform: 21.30 ± 9.86 cm/s
  swimming path length for reaching the platform: 563.90 ± 154.71 cm
  time for reaching the platform: 36.20 ± 27.16 s
[14]
  adopted strategy for reaching the platform (the peripheral type and the random type %): 69.33%
  orientation angle for reaching the platform: 53.62 ± 17.88 °
  speed for reaching the platform: 22.73 ± 17.69 cm/s
  swimming path length for reaching the platform: 562.80 ± 280.10 cm
  time for reaching the platform: 33.50 ± 21.95 s
[15]
  adopted strategy for reaching the platform (the peripheral type and the random type %): 67.59%
  orientation angle for reaching the platform: 51.22 ± 20.11 °
  speed for reaching the platform: 21.90 ± 10.66 cm/s
  swimming path length for reaching the platform: 481.50 ± 203.96 cm
  time for reaching the platform: 30.10 ± 15.85 s
[16]
  adopted strategy for reaching the platform (the peripheral type and the random type %): 68.55%
  orientation angle for reaching the platform: 52.11 ± 22.00 °
  speed for reaching the platform: 21.55 ± 6.47 cm/s
  swimming path length for reaching the platform: 513.30 ± 194.29 cm
  time for reaching the platform: 35.90 ± 24.22 s
[17]
  adopted strategy for reaching the platform (the peripheral type and the random type %): 65.72%
  orientation angle for reaching the platform: 50.65 ± 18.77 °
  speed for reaching the platform: 20.62 ± 7.36 cm/s
  swimming path length for reaching the platform: 523.30 ± 182.50 cm
  time for reaching the platform: 38.90 ± 22.26 s
[18]
  adopted strategy for reaching the platform (the peripheral type and the random type %): 60.14%
  orientation angle for reaching the platform: 48.78 ± 16.83 °
  speed for reaching the platform: 18.52 ± 7.78 cm/s
  swimming path length for reaching the platform: 540.50 ± 166.77 cm
  time for reaching the platform: 36.10 ± 22.34 s

From patent US12215085B2 (priority 2019, dated 2025)
